Laboratory results as given in US20120149625A1, “Detergent Composition” (Novozymes A/S, priority 2009, published 2012).
Read-outs that look alike come from different tables or passages of the source. Residues, ends and D or L forms follow the SMILES beside them. *: point of attachment. Cbz = O=C(OCc1ccccc1)*

What was measured:
Savinase [1] = target: T1, Savinase (Lederbergia lenta, UniProt P29600); test: AMSA laundry detergency, powder detergent, various inhibitors (Example 1); settings: 30 nM protease, 40° C., 15° dH
T1 sequence (P29600 1-269): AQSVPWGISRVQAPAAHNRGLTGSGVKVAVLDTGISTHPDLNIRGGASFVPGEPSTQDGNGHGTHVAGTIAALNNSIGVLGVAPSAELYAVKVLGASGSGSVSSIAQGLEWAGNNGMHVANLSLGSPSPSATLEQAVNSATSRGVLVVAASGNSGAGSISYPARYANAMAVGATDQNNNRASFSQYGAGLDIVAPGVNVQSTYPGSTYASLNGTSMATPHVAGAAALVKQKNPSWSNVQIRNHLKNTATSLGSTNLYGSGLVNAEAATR

Savinase variant S99SE = Savinase variant S99SE (Lederbergia lenta, UniProt P29600, INS97E); settings: Powder Detergent 2 at 2.5 g/L, 30 nM Savinase variant S99SE, 20° C., 15° dH
Savinase [2] = target: T1, Savinase; test: Washing test with protease and inhibitor at various molar ratios (Example 4); settings: 20° C., 15° dH
Procedure: Washing tests were made in detergents with a protease and an inhibitor. Washing conditions were 20 minutes washing at 20° C. and 15° dH. […] The inhibitor was inhibitor Z-GAY-H at various molar ratios. The results are shown as detergency with the inhibitor relative to detergency at the same conditions without the inhibitor:
The detergent was a powder detergent with the following composition at 2.5 g/L.
20.05 g Na-citrate dehydrate
The liquid detergent described under the AMSA assay was used.
The powder detergent described under the AMSA assay was used.

Alcalase [3] = target: T2, Alcalase (Bacillus licheniformis, UniProt P00780); test: as above; settings: 30 nM Alcalase, 20° C., 15° dH
T2 construct: purchased Novozymes A/S
T2 sequence (P00780 106-379): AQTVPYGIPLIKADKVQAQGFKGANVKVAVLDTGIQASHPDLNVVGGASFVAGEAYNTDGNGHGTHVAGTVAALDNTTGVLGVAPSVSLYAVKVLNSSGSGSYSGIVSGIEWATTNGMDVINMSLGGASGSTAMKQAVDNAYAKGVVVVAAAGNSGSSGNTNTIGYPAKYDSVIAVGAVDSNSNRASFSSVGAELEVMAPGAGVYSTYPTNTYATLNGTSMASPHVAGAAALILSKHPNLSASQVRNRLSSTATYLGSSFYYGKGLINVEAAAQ

Alcalase [4] = target: T2, Alcalase; test: AMSA laundry detergency, powder detergent, various inhibitors (Example 1); settings: 30 nM protease, 40° C., 15° dH, inhibitor dosage 5, None = 100%
[5] = target: Savinase variant Y167A + R170S + A194P (Lederbergia lenta, UniProt P29600, A188P/R164S/Y161A); settings: Powder Detergent 2 at 2.5 g/L, 30 nM Savinase variant Y167A + R170S + A194P, 20° C., 15° dH
Protease PD138 = test: Washing test in commercial liquid detergents (Example 4); settings: Liquid detergent Commercial 1; inhibitor:protease molar ratio 5:1; 20 min, 20° C., 15° dH
Procedure: (§1) Washing tests were made in detergents with a protease and an inhibitor. Washing conditions were 20 minutes washing at 20° C. and 15° dH. The protease was Savinase at 30 nM. The inhibitor was inhibitor Z-GAY-H at various molar ratios. The results are shown as detergency with the inhibitor relative to detergency at the same conditions without the inhibitor:
(§2) Two commercial liquid detergents purchased in England were tested with inhibitor:protease molar ratio of 5:1. Protease 10R is described in WO 88/03947. Protease PD138 is described in […]

Protease 10R = test: as above; settings: Liquid detergent Commercial 1; inhibitor:protease molar ratio 5:1; 20 min, 20° C., 15° dH
Procedure: as §1, §2

Savinase [6] = target: T1, Savinase; test: biochemical; settings: substrate SucAAPF-pNA, 0,1M TRIS pH 9.0, 25° C., [E]0=6E-09 M, read-out: inhibition constant Ki
Savinase [7] = target: T1, Savinase; test: AMSA laundry detergency, laundry liquid model detergent, various inhibitors (Example 2); settings: 30 nM Savinase, 20° C., 15° dH, inhibitor dosering 5, None = 100%
Procedure: Model detergents and test materials for laundry were as follows:
After washing the textiles were flushed in tap water and dried.
Detergency was determined with various inhibitors in the laundry liquid model detergent with 30 nM protease (Savinase). Washing was done at 20° C. and water hardness 15° dH with test swatches EMPA117EH.

[8] = inhibitor:protease molar ratio 500, None = 100%
[9] = molar ratio not given, None = 100%
[10] = inhibitor:protease molar ratio 5, None = 100%

Chain of Savinase variant S99SE (P29600 other isoform, or with tags, fused parts or gaps INS97E): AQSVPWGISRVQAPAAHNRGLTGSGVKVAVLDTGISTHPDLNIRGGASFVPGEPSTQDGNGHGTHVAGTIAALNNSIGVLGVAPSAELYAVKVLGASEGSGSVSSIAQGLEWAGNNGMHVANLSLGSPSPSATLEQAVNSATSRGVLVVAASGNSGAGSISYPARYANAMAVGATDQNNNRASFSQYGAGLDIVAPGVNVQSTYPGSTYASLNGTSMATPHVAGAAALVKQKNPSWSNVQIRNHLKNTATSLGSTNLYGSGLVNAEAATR
Chain of Savinase variant Y167A + R170S + A194P (P29600 whole entry Y161A/R164S/A188P): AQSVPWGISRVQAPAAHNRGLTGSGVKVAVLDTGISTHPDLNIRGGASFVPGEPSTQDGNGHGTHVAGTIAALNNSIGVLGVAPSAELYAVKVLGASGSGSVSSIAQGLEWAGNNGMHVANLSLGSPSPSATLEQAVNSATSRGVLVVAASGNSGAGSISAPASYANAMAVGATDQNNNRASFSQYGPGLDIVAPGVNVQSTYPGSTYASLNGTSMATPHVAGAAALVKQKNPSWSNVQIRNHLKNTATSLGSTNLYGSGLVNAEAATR

O=Cc1ccc(B(O)O)cc1 [Inhibitor 4-FPBA, 4-formyl-phenyl-boronic acid]
CS-37 % performance (Savinase [1]; [8]): 128%
EMPA117EH % performance (Savinase [1]; [8]): 107%
CS-37 % performance (Savinase [1]; [9]): 137%
EMPA117EH % performance (Savinase [1]; [9]): 111%

C[C@H](NC(=O)CNC(=O)OCc1ccccc1)C(=O)N[C@H](C=O)Cc1ccc(O)cc1 [Z-GAY-H] (Cbz-Gly-Ala-Tyr-aldehyde)
detergency with the inhibitor relative to without (Savinase variant S99SE; molar ratio 1.5): 100%
detergency with the inhibitor relative to without (Savinase variant S99SE; molar ratio 3): 103%
detergency with the inhibitor relative to without (Savinase variant S99SE; molar ratio 5): 106%
detergency with the inhibitor relative to without (Savinase [2]; Liquid Detergent (AMSA model), 30 nM Savinase, molar ratio 1.5): 114%
detergency with the inhibitor relative to without (Savinase [2]; Liquid Detergent (AMSA model), 30 nM Savinase, molar ratio 3): 109%
detergency with the inhibitor relative to without (Savinase [2]; Liquid Detergent (AMSA model), 30 nM Savinase, molar ratio 5): 108%
detergency with the inhibitor relative to without (Savinase [2]; Powder Detergent 1 (AMSA model), 10 nM Savinase, molar ratio 0.5): 112%
detergency with the inhibitor relative to without (Savinase [2]; Powder Detergent 1 (AMSA model), 10 nM Savinase, molar ratio 1): 108%
detergency with the inhibitor relative to without (Savinase [2]; Powder Detergent 1 (AMSA model), 10 nM Savinase, molar ratio 1.5): 111%
detergency with the inhibitor relative to without (Savinase [2]; Powder Detergent 1 (AMSA model), 10 nM Savinase, molar ratio 2): 121%
detergency with the inhibitor relative to without (Savinase [2]; Powder Detergent 1 (AMSA model), 10 nM Savinase, molar ratio 3): 118%
detergency with the inhibitor relative to without (Savinase [2]; Powder Detergent 1 (AMSA model), 10 nM Savinase, molar ratio 5): 118%
detergency with the inhibitor relative to without (Savinase [2]; Powder Detergent 1 (AMSA model), 10 nM Savinase, molar ratio 10): 122%
detergency with the inhibitor relative to without (Savinase [2]; Powder Detergent 1 (AMSA model), 10 nM Savinase, molar ratio 15): 116%
detergency with the inhibitor relative to without (Savinase [2]; Powder Detergent 1 (AMSA model), 10 nM Savinase, molar ratio 20): 104%
detergency with the inhibitor relative to without (Savinase [2]; Powder Detergent 1 (AMSA model), 10 nM Savinase, molar ratio 30): 101%
detergency with the inhibitor relative to without (Savinase [2]; Powder Detergent 1 (AMSA model), 10 nM Savinase, molar ratio 50): 95%
detergency with the inhibitor relative to without (Savinase [2]; Powder Detergent 1 (AMSA model), 30 nM Savinase, molar ratio 0.5): 106%
detergency with the inhibitor relative to without (Savinase [2]; Powder Detergent 1 (AMSA model), 30 nM Savinase, molar ratio 1): 105%
detergency with the inhibitor relative to without (Savinase [2]; Powder Detergent 1 (AMSA model), 30 nM Savinase, molar ratio 1.5): 107%
detergency with the inhibitor relative to without (Savinase [2]; Powder Detergent 1 (AMSA model), 30 nM Savinase, molar ratio 2): 108%
detergency with the inhibitor relative to without (Savinase [2]; Powder Detergent 1 (AMSA model), 30 nM Savinase, molar ratio 3): 105%
detergency with the inhibitor relative to without (Savinase [2]; Powder Detergent 1 (AMSA model), 30 nM Savinase, molar ratio 5): 110%
detergency with the inhibitor relative to without (Savinase [2]; Powder Detergent 1 (AMSA model), 30 nM Savinase, molar ratio 10): 107%
detergency with the inhibitor relative to without (Savinase [2]; Powder Detergent 1 (AMSA model), 30 nM Savinase, molar ratio 15): 99%
detergency with the inhibitor relative to without (Savinase [2]; Powder Detergent 1 (AMSA model), 30 nM Savinase, molar ratio 20): 95%
detergency with the inhibitor relative to without (Savinase [2]; Powder Detergent 1 (AMSA model), 30 nM Savinase, molar ratio 30): 83%
detergency with the inhibitor relative to without (Savinase [2]; Powder Detergent 1 (AMSA model), 30 nM Savinase, molar ratio 50): 80%
detergency with the inhibitor relative to without (Savinase [2]; Powder Detergent 2 at 2.5 g/L, 30 nM Savinase, molar ratio 1.5): 132%
detergency with the inhibitor relative to without (Savinase [2]; Powder Detergent 2 at 2.5 g/L, 30 nM Savinase, molar ratio 3): 140%
detergency with the inhibitor relative to without (Savinase [2]; Powder Detergent 2 at 2.5 g/L, 30 nM Savinase, molar ratio 5): 134%
detergency with the inhibitor relative to without (Alcalase [3]; Liquid Detergent (AMSA model), molar ratio 1.5): 145%
detergency with the inhibitor relative to without (Alcalase [3]; Liquid Detergent (AMSA model), molar ratio 3): 169%
detergency with the inhibitor relative to without (Alcalase [3]; Liquid Detergent (AMSA model), molar ratio 5): 146%
detergency with the inhibitor relative to without (Alcalase [3]; Liquid Detergent (AMSA model), molar ratio 7.5): 149%
detergency with the inhibitor relative to without (Alcalase [3]; Liquid Detergent (AMSA model), molar ratio 10): 147%
detergency with the inhibitor relative to without (Alcalase [3]; Powder Detergent 2 at 2.5 g/L, molar ratio 3): 103%
detergency with the inhibitor relative to without (Alcalase [3]; Powder Detergent 2 at 2.5 g/L, molar ratio 5): 113%
detergency with the inhibitor relative to without (Alcalase [3]; Powder Detergent 2 at 2.5 g/L, molar ratio 7.5): 116%
detergency with the inhibitor relative to without (Alcalase [3]; Powder Detergent 2 at 2.5 g/L, molar ratio 10): 119%
CS-37 % performance (Alcalase [4]): 147%
EMPA117EH % performance (Alcalase [4]): 108%
detergency with the inhibitor relative to without ([5]; molar ratio 1.5): 100%
detergency with the inhibitor relative to without ([5]; molar ratio 3): 107%
detergency with the inhibitor relative to without ([5]; molar ratio 5): 107%
Detergency increase (Protease PD138): 107%
Detergency increase (Protease 10R): 107%
CS-37 % performance (Savinase [1]; [10]): 242%
EMPA117EH % performance (Savinase [1]; [10]): 117%
Ki (Savinase [6]): 7.4 nM
EMPA117EH % performance increase (Savinase [7]): 114%
